This is an account of results in PubChem BioAssay (NCI).

Assay in all cases: DTP human tumour cell line panel, 48 h
Assay [1] concerns MCF7 breast.
The test system of assay [2] is BT-549 breast.
Assay [3] relates to MDA-N.
The test system of assay [4] is DMS 273 small cell lung.
In assay [5] the test system is HOP-18 NSCLC.
Assay [6] deals with XF 498 CNS.
Assay [7] deals with M19-MEL melanoma.
Assay [8] deals with LXFL 529 NSCLC.

Each structure is given as a SMILES string. Values joined by “and” are separate entries in the source; they are usually repeats but may differ in a detail not shown here. Equal entries are not always repeated.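 Interpolation was linear, between the two tested concentrations surrounding the appropriate level; five concentrations were tested over 48 hours in 96-well plates. Abbreviation: GI50, concentration required for 50% inhibition of growth. TGI marks complete inhibition of growth.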

As to `N#Cc1c(-c2nc3ccccc3s2)c(=O)oc2cc(O)ccc12`, the concentration for total growth inhibition (TGI) in assay [1] is more than 100 µM; in assay [2], 62.8 µM; in assay [3], more than 100 µM.
With `Cc1cc(C)nc(NS(=O)(=O)c2ccc(Nc3c4ccccc4nc4c(C(=O)Nc5ccc(S(=O)(=O)N=C(N)N)cc5)ccc(Cl)c34)cc2)n1`, the TGI in assay [4] was more than 100 µM; in assay [5] it was more than 100 µM; in assay [6] it was 56.7 µM; in assay [7], 55.4 µM; in assay [8] it was 72.4 µM.
In the case of `COc1cc2c3c(n(C)c(=O)c2cc1OC)-c1cc2c(cc1/C3=C\CCCCCN)OCO2`, in assay [2], the GI50 was 6.05 µM and the total growth inhibition concentration (TGI) came out at 21.3 µM.
Consider `COc1ccc2cc(C(=O)/C=C/c3cc(OC)c(OC)c(OC)c3)ccc2c1`, for which, in assay [2], the GI50 was 5.7 µM and the total growth inhibition concentration (TGI) turned out to be 19.5 µM.
For `N=C1C(c2nc(-c3ccc(Br)cc3)cs2)=C(O)CN1Cc1cccnc1`, the GI50 was 9.76 µM in assay [1] and 42.6 µM in assay [2]. Moreover, the concentration for total growth inhibition (TGI) in assay [1] and in assay [2] was more than 100 µM in each case.
Take `C=C1C(=O)O[C@H]2[C@H]1CC/C(COC(=O)c1cc3cc(F)ccc3[nH]1)=C\CC[C@@]1(C)O[C@@H]21`: in assay [1], the GI50 was 1.02 µM and the TGI came to 3.75 µM.
Turning to `O=C(Oc1ccc(Cl)cc1Cl)c1ccccc1Nc1ccnc(C(F)(F)F)c1`, in assay [1], the GI50 is 3.61 µM and the TGI stood at 17.2 µM. In addition, in assay [2], the GI50 is 6.7 µM and the TGI was found to be 25.4 µM.
With `Cc1ncc(CN=Cc2ccc(Cl)cc2)c(N)n1`, the total growth inhibition concentration (TGI) in assay [1], in assay [2] and in assay [3] was more than 100 µM each time.
As to `ClCc1cccc(Cn2cnc3c(Cl)ncnc32)c1`, in assay [1], the GI50 was 7.8 µM and the total growth inhibition concentration (TGI) is 77.7 µM. Also, in assay [2], the GI50 is 15.3 µM and the concentration for total growth inhibition (TGI) worked out at 30.2 µM.
For `COc1ccc2c(c1)[nH]c(=O)c1c3cc(C)c(C)cc3cn21` the same measures were 0.0927 µM, 1.16 µM, 0.024 µM and 0.366 µM.
As for `Cc1cnc2c(C)ccc([N+](=O)[O-])c2c1NCCCN(C)C`, the concentration for total growth inhibition (TGI) in assay [4] and in assay [7] was more than 100 µM each time.
With `CC[C@H](C)N(CCN)C(=O)c1cc2ccccc2c(-c2ccccc2Cl)n1`, the results for the total growth inhibition concentration (TGI) in assay [4] and in assay [8] were 27.6 µM and 10.4 µM, respectively.
Regarding `Cc1ccc(CNc2c3ccccc3nc3ccccc23)cc1`, in assay [1], the GI50 is 1.99 µM and the TGI was 5.03 µM. Also, in assay [2], the GI50 was 2.43 µM and the TGI stood at 6.34 µM.
Regarding `O=C(c1ccccc1)C(C(=O)c1ccccc1)C1(O)C(=O)c2ccccc2C1=O`, the TGI in assay [4] is more than 100 µM; in assay [5], more than 100 µM; in assay [6], more than 100 µM; in assay [7], 42.6 µM; in assay [8], more than 100 µM.
Take `Cc1ccc(-[n+]2c3cc(N)c(C)cc3nc3cc(C)c(Nc4ccccc4)cc32)cc1`: in assay [2], the GI50 is 0.128 µM and the total growth inhibition concentration (TGI) came out at 0.717 µM.
Regarding `COc1cc(-c2nn(-c3ccc(NC(=O)c4ccc(Cl)c(Cl)c4)cc3)cc2-c2ccncc2)ccc1Cl`, in assay [1], the GI50 is 5.53 µM and the concentration for total growth inhibition (TGI) was more than 100 µM. Besides, in assay [2], the GI50 was more than 100 µM and the total growth inhibition concentration (TGI) was more than 100 µM.
For the compound `COc1cc2c(cc1OC)C(=O)/C(=C/c1cccc(OCC(=O)c3ccccc3)c1)C2`, in assay [1], the GI50 is 5.83 µM and the TGI is more than 100 µM. In assay [2], the GI50 was 24.9 µM and the concentration for total growth inhibition (TGI) is more than 100 µM.
For `C=CCn1c2c(c3ccccc3c1=O)C(=O)c1ccccc1-2`, the concentration for total growth inhibition (TGI) in assay [1], in assay [2] and in assay [3] was more than 100 µM in each case.
With `CN(C)c1cccc2c(S(=O)(=O)N[C@H]3CC[C@H]4[C@@H]5CCc6cc(O)ccc6[C@H]5CC[C@]34C)cccc12`, in assay [1], the GI50 was 2.59 µM and the total growth inhibition concentration (TGI) was more than 100 µM. In addition, in assay [2], the GI50 was 2.55 µM and the TGI was determined as 6.5 µM.
Regarding `CCOc1ccccc1NC(=O)C(=O)CC(=O)c1c(C)n([O-])c2ccccc2[n+]1=O`, the total growth inhibition concentration (TGI) in assay [4], in assay [5], in assay [7] and in assay [8] was more than 100 µM in each case.
`COc1cc(C2CC(c3ccc(C)cc3)=NN2C=O)ccc1Oc1ccnc2cc(Cl)ccc12` (stereo not given): in assay [1], the GI50 was more than 50 µM and the TGI is more than 50 µM. Besides, in assay [2], the GI50 was 3.96 µM and the TGI was more than 50 µM.
As for `N#CCC1COc2ccccc2O1` (stereo not given), the concentration for total growth inhibition (TGI) in assay [1], in assay [2] and in assay [3] was more than 10 µM in each case.
`N#Cc1c(Sc2ccccc2N)cccc1Sc1ccccc1N`: the GI50 in assay [1] is 27.9 µM; in assay [2], 76.9 µM; in assay [3], 49.1 µM.
With `C=C1C(=O)O[C@H]2[C@H]1CC/C(Cn1cc(CNC(=O)Cc3cn(C(=O)c4ccc(Cl)cc4)c4ccc(OC)cc34)nn1)=C\CC[C@@]1(C)O[C@@H]21`, in assay [2], the GI50 is 1.61 µM and the TGI worked out at 3.41 µM.
Turning to `O=C1NCc2ccc3c(-c4cccc(Cl)c4)c[nH]c3c21`, the concentration for 50% growth inhibition (GI50) was 0.177 µM in assay [1] and 0.245 µM in assay [2]. The figures for the TGI in assay [1] and in assay [2] were more than 50 µM and more than 45.7 µM, respectively.
Turning to `COc1ccc(-c2nc3sc(C)cn3c2/C=C/C(=O)c2cc(OC)c(OC)c(OC)c2)cc1`, in assay [1], the GI50 is 3.13 µM and the concentration for total growth inhibition (TGI) was more than 100 µM. Also, in assay [2], the GI50 was 4.13 µM and the TGI is more than 100 µM.
In the case of `CNc1ccc2nc3ccc(=[N+](C)C)cc-3sc2c1`, the GI50 was 0.801 µM and 0.284 µM in assay [1]; 4.87 µM and 5.73 µM in assay [2]. Also, the TGI in assay [1] was 6.84 µM and 3.62 µM; in assay [2] it was 20.7 µM and 22.6 µM.
As to `COc1cc(O)c([C@@H]2C[C@H](CCc3ccc(O)cc3)O[C@H](c3ccc(O)cc3)C2)c(O)c1C(=O)/C=C/c1ccc(O)cc1`, in assay [1], the GI50 was 1.96 µM and the concentration for total growth inhibition (TGI) is 4.61 µM. Further, in assay [2], the GI50 is 2.39 µM and the TGI is 5.34 µM.

One may read the TGI as the concentration giving total growth inhibition. As usually defined, the GI50 is the concentration at which growth is held to half of that of the control.
